Data on 2 compounds can be found in patent publication US20040170622A1, “Methods and compositions for modulating XBP-1 activity” (President and Fellows of Harvard College, priority 2002, published 2004).

Where a SMILES comes first, the peptide text is derived from it. The star is where a group is joined. Cbz = O=C(OCc1ccccc1)*

The test system of test [1] is UPR target genes. Nature of the test: UPR gene and XBP-1 protein expression in MEF cells (gene array, Northern, Western blot). The test is classed as cell-based, mouse. As to conditions: for induction of ERdj4 (XBP-1-dependent UPR target gene): XBP-1-deficient MEFs; for XBP-1u and XBP-1s protein induction: wt MEFs, 10 μM MG-132 or 10 μg/ml Tm, 6 hours. The method, then:
(A) XBP-1 locus in wild type and XBP-1^−/− MEF cells. Splicing of the mutant XBP-1 mRNA in XBP-1^−/− cells is shown. * represent termination codons. (B) Wild type and XBP-1^−/− MEF cells were untreated or treated with 10 μg/ml Tm for 6 hours. […] (C) Wild type and XBP-1^−/− MEF cells were treated with 10 μM MG-132 or 10 μg/ml Tm for 6 hours. XBP-1u and XBP-1s proteins were detected by Western blot analysis with anti-XBP-1 antibody.
293T and MEF cells derived from wild type and XBP-1^−/− embryos were cultured in DMEM supplemented with 10% fetal calf serum (Hyclone Laboratories). MEF-tet-off cells (Clontech) were maintained in the same media with the addition of 100 μg/ml G418 and 1 μg/ml doxycycline. XBP-1s inducible cells were obtained by transfecting MEF-tet-off cells with the TREhyg-XBP-1s plasmid and then selecting in the presence of 400 μg/ml hygromycin B. Several clones were tested for doxycycline-dependent XBP-1s expression, and one was selected for further experiments. MEF-dn-XBP cells were generated by transfecting MEF-tet-off cells with the TREhyg-dn-XBP plasmid. […] ATF6α and β knockdown MEF cells were generated by cotransfecting wild type MEF cells with U6-iATF6α and β and cmv-puromycin or transducing cells with retroviruses containing each RNAi vector.
Total RNA was isolated from MEF cells with TRIZOL reagent (Invitrogen, Carlsbad, Calif.). cDNA synthesis, hybridization and laser scanning of the array were carried out at the Gene Array Technology Center (Brigham and Women's Hospital, Boston, Mass.) with MG-U74A GeneChips which had 6,000 functionally characterized sequences and 6,000 ESTs from the UniGene database (Affymetrix, Santa Clara, Calif.) as recommended by Affymetrix. Data analysis was performed using Affymetrix GeneChip 3.1 software under default parameter setting.
Total RNA was prepared by using Trizol reagent, electrophoresed on 1.2% agarose, 6% formaldehyde gels and then transferred onto Genescreen Plus membrane (NEN). ^32P-radiolabeled probes were prepared with the RediPrime II labeling system (Amersham-Pharmacia). Template DNAs for the probes were cut out by using appropriate restriction enzymes from the cDNA-containing plasmid (XBP-1, 15-830 of the murine coding region) or EST clones from ATCC (CHOP, IMAGE:5863055; ERdj4, IMAGE: 1920927; p58^IPK probe A, IMAGE:9001935; p58^IPK probe B, IMAGE:2646147; ATF6α, IMAGE:4503659; MGP, IMAGE:4990627; EDEM, IMAGE:5324660; PDI-P5, IMAGE:2645183; RAMP4, IMAGE:3489738). Grp94 and Grp78 probes were kindly provided by R. J. Kaufman, Univ. of Michigan and the HEDJ probe the kind gift of L. Hendershot, St. Jude Children's Research Hospital, Memphis. Probe hybridization was performed with Ultrahyb buffer as recommended by the manufacturer (Ambion).
48 hours after transfection, 293T cells were washed twice with cold PBS and lysed in 1 ml lysis buffer (10 mM Tris pH7.4, 150 mM NaCl, 1% Triton X-100, 1 mM EDTA) containing a protease inhibitor cocktail tablet (Roche). Lysates were precleared by using protein A-agarose beads (Roche) for 1 hour and incubated with agarose conjugated anti-HA antibody (Santa Cruz) for overnight. The agarose beads were washed five times with the lysis buffer and resuspended in SDS-PAGE sample buffer. MEF cells were lysed in RIPA buffer (50 mM Tris pH 7.4, 150 mM NaCl, 1 mM EDTA, 1% Triton X-100, 1% sodium deoxycholate, 0.1% SDS). Lysates and immunoprecipitates were subjected to SDS-PAGE and transferred to Hybond P membrane (Amersham-Pharmacia).
In general terms: In western blotting, separated proteins are transferred to a membrane and probed.

Test [2] has as its system BiP and CHOP. The experiment in a line: UPR target gene expression in NIH3T3 and J558 myeloma cells (Northern blot). Format: cell-based. To be noted: for induction of UPR target genes (BiP, CHOP), agent alone: MG-132 20 μM, Tm 10 μg/ml. The method, then:
(A) BiP and CHOP induction was examined by northern blot analysis after treating NIH3T3 or J558 myeloma cells with either MG-132 (20 μM), Tm (10 μg/ml) or both. Cells were pretreated with MG-132 for 1 hr and then further treated with Tm for 4 hrs. Ethidium bromide staining of the gel is shown at the bottom. (B) Inhibition of caspase-12 processing by proteasome inhibitors. Processing of full-length caspase-12 was examined by Western blotting in J558 myeloma cells treated with thapsigargin (1 μM) or PIs (20 μM) during the indicated time periods. (C) Alteration in the ratio of XBP-1 protein species in J558 cells were treated with increasing amounts of MG-132 for 16 hrs. Cells undergoing apoptosis were counted by Annexin V staining. (D) Time course of the XBP-1s to XBP-1u shift. Cells were treated with MG-132 (1 μM) for the indicated times and XBP-1u and spliced protein levels and cell death determined. (E) Alteration in the ratio of XBP-1 species in the MM.1s human myeloma line. Cells were treated with PS-341 (8 nM) in a time course analysis and XBP-1 protein species quantified.
Total RNA was prepared by using Trizol reagent, electrophoresed on 1.2% agarose, 6% formaldehyde gels and then transferred onto Genescreen Plus membrane, (NEN, Boston, Mass.). […] Probes for ERdj4 and p58^IPK were generated from cDNA excised from EST clones (ATCC, Manassas, Va.) using appropriate restriction enzymes (ERdj4, IMAGE: 1920927; p58^IPK, IMAGE:2646147).
The maturation and folding of ER membrane and secretory proteins relies on the activity of ER-resident chaperones and folding enzymes. ER proteins that ultimately fail to fold properly are degraded by the 26S proteasome, or ERAD. […] To test the effect of proteasome dysfunction on UPR activation, NIH3T3 fibroblasts (left panel) and J558 myeloma cells (right panel) were treated with the proteasome inhibitor (PI) MG-132 in the presence or absence of the ER stress inducer, tunicamycin (Tm), and the expression of UPR target genes assessed (FIG. 10a).

As for tunicamycin [Tm], in test [1], the “induction of ERdj4 (XBP-1-dependent UPR target gene)” value is listed as “not induced at all”; the “XBP-1u and XBP-1s protein induction” value was “induced both XBP-1u and XBP-1s proteins”. Besides, in test [1] (wt MEF cells, Tm 6 hours), the “genes whose expression increased, of the total pool of 12,000 genes” value is 2.8%. In addition, the “induction of UPR target genes (BiP, CHOP), agent alone” value in test [2] was “induction of expression of representative UPR target genes such as BiP (Grp78) and CHOP”.

Turning to `CC(C)C[C@@H](C=O)NC(=O)[C@H](CC(C)C)NC(=O)[C@H](CC(C)C)NC(=O)OCc1ccccc1` [MG-132] (Cbz-Leu-Leu-Leu-aldehyde), in test [1], the “induction of ERdj4 (XBP-1-dependent UPR target gene)” value is listed as “normal induction of ERdj4”; the “XBP-1u and XBP-1s protein induction” value is “induced both XBP-1u and XBP-1s proteins”. Moreover, in test [2], the “induction of UPR target genes (BiP, CHOP), agent alone” value is reported as “also induced the UPR”. The “effect on Tm-induced stress response” value in test [2] (MG-132 pretreatment 1 hr, then Tm 4 hrs, NIH3T3 and J558) is given as “blocked rather than further augmented the Tm-induced stress response”.
